Experimental data as given in ChEMBL document CHEMBL3885881, “DrugMatrix”.

Species: Rattus norvegicus
Test: DrugMatrix - Regimen: Daily Repeat
Type: toxicity, organism-based, Sprague-Dawley
Design: regimen Daily Repeat, gender Male, age 6-8 weeks
Settings: in vivo, po, route oral GAVAGE, […]; for ABSOLUTE BASOPHIL / ABSOLUTE EOSINOPHIL / ABSOLUTE LYMPHOCYTE / ABSOLUTE MONOCYTE / ABSOLUTE SEGMENTED NEUTROPHIL / BASOPHIL / EOSINOPHIL / ERYTHROCYTE COUNT / HEMATOCRIT / HEMOGLOBIN / LEUKOCYTE COUNT / LYMPHOCYTE / MEAN CORPUSCULAR HEMOGLOBIN / MEAN CORPUSCULAR HEMOGLOBIN CONCENTRATION / MEAN CORPUSCULAR VOLUME / MONOCYTE / NEUTROPHIL / NUCLEATED RED BLOOD CELLS / PLATELET COUNT: tissue Blood; for ALANINE AMINOTRANSFERASE / ALBUMIN / ALKALINE PHOSPHATASE / ASPARTATE AMINOTRANSFERASE / BLOOD UREA NITROGEN / CARBON DIOXIDE / CHLORIDE / CHOLESTEROL / CREATINE PHOSPHOKINASE / CREATININE / GLUCOSE / LACTATE DEHYDROGENASE / LIPASE / PHOSPHORUS / POTASSIUM / SODIUM / TOTAL BILIRUBIN / TOTAL PROTEIN / URIC ACID: tissue Plasma
[1] = 30 mg/kg, 120 h, dose level Low, time 5 day
[2] = 2500 mg/kg, 72 h, dose level High, time 3 day
[3] = 2500 mg/kg, 120 h, dose level High, time 5 day

COC1=CC(=O)C[C@@H](C)[C@]12Oc1c(Cl)c(OC)cc(OC)c1C2=O [GRISEOFULVIN]
ABSOLUTE BASOPHIL [1]: 0 CELLS/uL
ABSOLUTE EOSINOPHIL [1]: 0 CELLS/uL
ABSOLUTE LYMPHOCYTE [1]: 12913.33 CELLS/uL
ABSOLUTE MONOCYTE [1]: 48.67 CELLS/uL
ABSOLUTE SEGMENTED NEUTROPHIL [1]: 1938 CELLS/uL
BASOPHIL [1]: 0%
EOSINOPHIL [1]: 0%
ERYTHROCYTE COUNT [1]: 5.4 x10E6/uL
HEMATOCRIT [1]: 33.57%
HEMOGLOBIN [1]: 12.93 G/DL
LEUKOCYTE COUNT [1]: 14.9 x10E3/uL
LYMPHOCYTE [1]: 86.67%
MEAN CORPUSCULAR HEMOGLOBIN [1]: 23.93 pg
MEAN CORPUSCULAR HEMOGLOBIN CONCENTRATION [1]: 38.5 G/DL
MEAN CORPUSCULAR VOLUME [1]: 62.1 fL
MONOCYTE [1]: 0.33%
NEUTROPHIL [1]: 13%
NUCLEATED RED BLOOD CELLS [1]: 0 /100WBC
PLATELET COUNT [1]: 1179 x10E3/uL
ALANINE AMINOTRANSFERASE [1]: 63.67 u/L
ALBUMIN [1]: 3.87 G/DL
ALKALINE PHOSPHATASE [1]: 399.67 u/L
ASPARTATE AMINOTRANSFERASE [1]: 90.33 u/L
BLOOD UREA NITROGEN [1]: 15.33 mg/dL
CARBON DIOXIDE [1]: 28.33 mmol/L
CHLORIDE [1]: 101.67 MEQ/L
CHOLESTEROL [1]: 66.33 mg/dL
CREATINE PHOSPHOKINASE [1]: 384.67 u/L
CREATININE [1]: 0.2 mg/dL
GLUCOSE [1]: 154 mg/dL
LACTATE DEHYDROGENASE [1]: 329.33 u/L
LIPASE [1]: 10 u/L
PHOSPHORUS [1]: 11.63 mg/dL
POTASSIUM [1]: 6.32 MEQ/L
SODIUM [1]: 143 MEQ/L
TOTAL BILIRUBIN [1]: 0.2 mg/dL
TOTAL PROTEIN [1]: 5.5 G/DL
URIC ACID [1]: 1.43 mg/dL
ABSOLUTE BASOPHIL [2]: 0 CELLS/uL
ABSOLUTE EOSINOPHIL [2]: 109.33 CELLS/uL
ABSOLUTE LYMPHOCYTE [2]: 15660.67 CELLS/uL
ABSOLUTE MONOCYTE [2]: 63 CELLS/uL
ABSOLUTE SEGMENTED NEUTROPHIL [2]: 2167 CELLS/uL
BASOPHIL [2]: 0%
EOSINOPHIL [2]: 0.67%
ERYTHROCYTE COUNT [2]: 5.22 x10E6/uL
HEMATOCRIT [2]: 32.37%
HEMOGLOBIN [2]: 12.83 G/DL
LEUKOCYTE COUNT [2]: 18 x10E3/uL
LYMPHOCYTE [2]: 87%
MEAN CORPUSCULAR HEMOGLOBIN [2]: 24.6 pg
MEAN CORPUSCULAR HEMOGLOBIN CONCENTRATION [2]: 39.67 G/DL
MEAN CORPUSCULAR VOLUME [2]: 62.07 fL
MONOCYTE [2]: 0.33%
NEUTROPHIL [2]: 12%
NUCLEATED RED BLOOD CELLS [2]: 0 /100WBC
PLATELET COUNT [2]: 1162 x10E3/uL
ALANINE AMINOTRANSFERASE [2]: 57 u/L
ALBUMIN [2]: 3.87 G/DL
ALKALINE PHOSPHATASE [2]: 293.67 u/L
ASPARTATE AMINOTRANSFERASE [2]: 75.67 u/L
BLOOD UREA NITROGEN [2]: 14.33 mg/dL
CARBON DIOXIDE [2]: 33.67 mmol/L
CHLORIDE [2]: 98.33 MEQ/L
CHOLESTEROL [2]: 107.67 mg/dL
CREATINE PHOSPHOKINASE [2]: 199 u/L
CREATININE [2]: 0.17 mg/dL
GLUCOSE [2]: 144 mg/dL
LACTATE DEHYDROGENASE [2]: 120 u/L
LIPASE [2]: 11.67 u/L
PHOSPHORUS [2]: 12.17 mg/dL
POTASSIUM [2]: 6.74 MEQ/L
SODIUM [2]: 142.47 MEQ/L
TOTAL BILIRUBIN [2]: 0.2 mg/dL
TOTAL PROTEIN [2]: 5.83 G/DL
URIC ACID [2]: 1.47 mg/dL
ABSOLUTE BASOPHIL [3]: 0 CELLS/uL
ABSOLUTE EOSINOPHIL [3]: 34 CELLS/uL
ABSOLUTE LYMPHOCYTE [3]: 11701.67 CELLS/uL
ABSOLUTE MONOCYTE [3]: 201.67 CELLS/uL
ABSOLUTE SEGMENTED NEUTROPHIL [3]: 562.67 CELLS/uL
BASOPHIL [3]: 0%
EOSINOPHIL [3]: 0.33%
ERYTHROCYTE COUNT [3]: 5.46 x10E6/uL
HEMATOCRIT [3]: 34.03%
HEMOGLOBIN [3]: 13.2 G/DL
LEUKOCYTE COUNT [3]: 12.5 x10E3/uL
LYMPHOCYTE [3]: 93.67%
MEAN CORPUSCULAR HEMOGLOBIN [3]: 24.23 pg
MEAN CORPUSCULAR HEMOGLOBIN CONCENTRATION [3]: 38.8 G/DL
MEAN CORPUSCULAR VOLUME [3]: 62.4 fL
MONOCYTE [3]: 1.67%
NEUTROPHIL [3]: 4.33%
NUCLEATED RED BLOOD CELLS [3]: 0.33 /100WBC
PLATELET COUNT [3]: 1293.67 x10E3/uL
ALANINE AMINOTRANSFERASE [3]: 49.67 u/L
ALBUMIN [3]: 4.17 G/DL
ALKALINE PHOSPHATASE [3]: 316.33 u/L
ASPARTATE AMINOTRANSFERASE [3]: 89.33 u/L
BLOOD UREA NITROGEN [3]: 17.67 mg/dL
CARBON DIOXIDE [3]: 24 mmol/L
CHLORIDE [3]: 109 MEQ/L
CHOLESTEROL [3]: 95.67 mg/dL
CREATINE PHOSPHOKINASE [3]: 362.67 u/L
CREATININE [3]: 0.28 mg/dL
GLUCOSE [3]: 152.67 mg/dL
LACTATE DEHYDROGENASE [3]: 489 u/L
LIPASE [3]: 11.33 u/L
PHOSPHORUS [3]: 11.23 mg/dL
POTASSIUM [3]: 6.51 MEQ/L
SODIUM [3]: 150.77 MEQ/L
TOTAL BILIRUBIN [3]: 0.13 mg/dL
TOTAL PROTEIN [3]: 6.2 G/DL
URIC ACID [3]: 1.83 mg/dL
